Results from PubChem BioAssay AID1963864 (Molecular Pharmacology Branch, DTP, NCI, 2024).

Tested on: KRAS PDC multicell spheroid viability
Test: Anticancer human tumor 521955-158-R6-J3-PDC patient-derived pancreatic carcinoma cell line growth inhibition [KRAS2]
Conditions: for IC50: curve of first compound; for viability, T/C: stronger effect = lower value
Procedure, shortened: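 Combination screen of spheroid viability in tumor-cell co-cultures with endothelial (HUVEC) and mesenchymal stem cell stroma. Each agent was tested in half-log dilutions, topping at clinical Cmax or at 10 microM without a known Cmax.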

[1] = second compound 0.1 µM, first compound 0.01 µM
[2] = second compound 0.1 µM, first compound 0.0316 µM
[3] = second compound 0.1 µM, first compound 0.1 µM
[4] = second compound 0.1 µM, first compound 0.316 µM
[5] = second compound 0.1 µM, first compound 1 µM
[6] = second compound 0.1 µM, first compound 3.16 µM
[7] = second compound 0.316 µM, first compound 0.01 µM
[8] = second compound 0.316 µM, first compound 0.0316 µM
[9] = second compound 0.316 µM, first compound 0.1 µM
[10] = second compound 0.316 µM, first compound 0.316 µM
[11] = second compound 0.316 µM, first compound 1 µM
[12] = second compound 0.316 µM, first compound 3.16 µM
[13] = second compound 1 µM, first compound 0.01 µM
[14] = second compound 1 µM, first compound 0.0316 µM
[15] = second compound 1 µM, first compound 0.1 µM
[16] = second compound 1 µM, first compound 0.316 µM
[17] = second compound 1 µM, first compound 1 µM
[18] = second compound 1 µM, first compound 3.16 µM
[19] = second compound 3.16 µM, first compound 0.01 µM
[20] = second compound 3.16 µM, first compound 0.0316 µM
[21] = second compound 3.16 µM, first compound 0.1 µM
[22] = second compound 3.16 µM, first compound 0.316 µM
[23] = second compound 3.16 µM, first compound 1 µM
[24] = second compound 3.16 µM, first compound 3.16 µM
[25] = second compound 10 µM, first compound 0.01 µM
[26] = second compound 10 µM, first compound 0.0316 µM
[27] = second compound 10 µM, first compound 0.1 µM
[28] = second compound 10 µM, first compound 0.316 µM
[29] = second compound 10 µM, first compound 1 µM
[30] = second compound 10 µM, first compound 3.16 µM
[31] = second compound 0.1 µM, first compound 10 µM
[32] = second compound 0.316 µM, first compound 10 µM
[33] = second compound 1 µM, first compound 10 µM
[34] = second compound 3.16 µM, first compound 10 µM
[35] = second compound 10 µM, first compound 10 µM
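Also: drug exposure lasted seven days.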
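For viability, T/C in this document: 100% = DMSO vehicle wells and lower means fewer viable cells.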

SMILES | IC50 (second compound 0.1 µM) [µM] | IC50 (second compound 0.316 µM) [µM] | IC50 (second compound 1 µM) [µM] | IC50 (second compound 3.16 µM) [µM] | IC50 (second compound 10 µM) [µM] | viability, T/C [2] [%] | viability, T/C [3] [%] | viability, T/C [4] [%] | viability, T/C [5] [%] | viability, T/C [6] [%] | viability, T/C [8] [%] | viability, T/C [9] [%] | viability, T/C [10] [%] | viability, T/C [11] [%] | viability, T/C [14] [%] | viability, T/C [15] [%] | viability, T/C [20] [%] | viability, T/C [21] [%] | viability, T/C [26] [%] | viability, T/C [27] [%] | further results
CC1COCCN1c1cc(-c2ccnn2C)c2ccnc(-c3ccn[nH]3)c2n1 (stereo not given) + CNCc1ccccc1-c1csc(C(C)Nc2nc(C)nc3cc(OC)c(OC)cc23)c1 | > 3.16 | > 3.16 | > 3.16 | < 0.01 | < 0.01 | 90.4 | 80.4 | 76.2 | 64.4 | 81.2 | 70.4 | 71 | 57.9 | 69.3 | 63.3 | 58.1 | 0.29 | 1.4 | 0.19 | 0.21 | viability, T/C [1]: 83.9%; viability, T/C [7]: 79.5%; viability, T/C [12]: 68.4%; viability, T/C [13]: 68.6%; viability, T/C [16]: 47.3%; viability, T/C [17]: 55.1%; viability, T/C [18]: 63.7%; viability, T/C [19]: 0.45%; viability, T/C [22]: 0.26%; viability, T/C [23]: 0.42%; viability, T/C [24]: 0.43%; viability, T/C [25]: 0.19%; viability, T/C [28]: 0.16%; viability, T/C [29]: 0.17%; viability, T/C [30]: 0.3%
CC1OCC2(CCN(c3cnc(Sc4ccnc(N)c4Cl)c(N)n3)CC2)C1N (stereo not given) + CNCc1ccccc1-c1csc(C(C)Nc2nc(C)nc3cc(OC)c(OC)cc23)c1 | > 10 | > 10 | > 10 | < 0.0316 | < 0.0316 | 83.1 | 73.2 | 73.5 | 81.8 | 105 | 83.7 | 80.3 | 70 | 72.7 | 67.3 | 67 | 0.42 | 0.24 | 0.23 | 0.26 | viability, T/C [31]: 100%; viability, T/C [12]: 92.2%; viability, T/C [32]: 105%; viability, T/C [16]: 66.5%; viability, T/C [17]: 72%; viability, T/C [18]: 90%; viability, T/C [33]: 67.3%; viability, T/C [22]: 0.25%; viability, T/C [23]: 0.33%; viability, T/C [24]: 1.07%; viability, T/C [34]: 0.41%; viability, T/C [28]: 0.26%; viability, T/C [29]: 0.17%; viability, T/C [30]: 0.22%; viability, T/C [35]: 0.27%
CCNC(=O)CC1N=C(c2ccc(Cl)cc2)c2cc(OC)ccc2-n2c(C)nnc21 (stereo not given) + CNCc1ccccc1-c1csc(C(C)Nc2nc(C)nc3cc(OC)c(OC)cc23)c1 | > 10 | > 10 | > 10 | < 0.0316 | < 0.0316 | 96.3 | 90.5 | 67.6 | 69.5 | 68.1 | 82.3 | 71.9 | 72.4 | 61 | 71.3 | 62 | 0.29 | 0.34 | 0.2 | 0.18 | viability, T/C [31]: 73.8%; viability, T/C [12]: 65.8%; viability, T/C [32]: 69.5%; viability, T/C [16]: 61.6%; viability, T/C [17]: 62.8%; viability, T/C [18]: 74.3%; viability, T/C [33]: 73%; viability, T/C [22]: 0.34%; viability, T/C [23]: 0.43%; viability, T/C [24]: 0.28%; viability, T/C [34]: 0.8%; viability, T/C [28]: 0.16%; viability, T/C [29]: 0.17%; viability, T/C [30]: 0.21%; viability, T/C [35]: 0.28%
CC(=O)OC12COC1CC(O)C1(C)C(=O)C(O)C3=C(C)C(OC(=O)C(O)C(NC(=O)OC(C)(C)C)c4ccccc4)CC(O)(C(OC(=O)c4ccccc4)C21)C3(C)C (stereo not given) + COc1cc2nc(C)nc(NC(C)c3cc(N)cc(C(F)(F)F)c3)c2cc1OC1CCOC1 | > 3.16 | > 3.16 | > 3.16 | > 3.16 | > 3.16 | 74.6 | 69.7 | 77.8 | 85.7 | 114 | 66.5 | 70.2 | 60.3 | 90.7 | 67.3 | 66.5 | 61.3 | 55.7 | 62.2 | 72.6 | viability, T/C [1]: 78.7%; viability, T/C [7]: 66.3%; viability, T/C [12]: 117%; viability, T/C [13]: 75.6%; viability, T/C [16]: 78.5%; viability, T/C [17]: 86.2%; viability, T/C [18]: 106%; viability, T/C [19]: 52.6%; viability, T/C [22]: 70%; viability, T/C [23]: 111%; viability, T/C [24]: 120%; viability, T/C [25]: 68.5%; viability, T/C [28]: 84.6%; viability, T/C [29]: 102%; viability, T/C [30]: 120%
CN(C)C/C=C/C(=O)Nc1cc2c(Nc3ccc(F)c(Cl)c3)ncnc2cc1O[C@H]1CCOC1 + COc1cc2nc(C)nc(NC(C)c3cc(N)cc(C(F)(F)F)c3)c2cc1OC1CCOC1 | > 0.1 | > 0.1 | > 0.1 | 0.00284 | 0.0032 | 54 | 55.5 |  |  |  | 54.7 | 53.2 |  |  | 56.1 | 48.6 | 44.4 | 45.5 | 32.8 | 25.4 | viability, T/C (second compound 0.1 µM, first compound 0.000316 µM): 89.3%; viability, T/C (second compound 0.1 µM, first compound 0.001 µM): 78.3%; viability, T/C (second compound 0.1 µM, first compound 0.00316 µM): 72.3%; viability, T/C [1]: 61.2%; viability, T/C (second compound 0.316 µM, first compound 0.000316 µM): 93%; viability, T/C (second compound 0.316 µM, first compound 0.001 µM): 106%; viability, T/C (second compound 0.316 µM, first compound 0.00316 µM): 78.5%; viability, T/C [7]: 65%; viability, T/C (second compound 1 µM, first compound 0.000316 µM): 105%; viability, T/C (second compound 1 µM, first compound 0.001 µM): 100%; viability, T/C (second compound 1 µM, first compound 0.00316 µM): 89.5%; viability, T/C [13]: 61.8%; viability, T/C (second compound 3.16 µM, first compound 0.000316 µM): 84%; viability, T/C (second compound 3.16 µM, first compound 0.001 µM): 78.2%; viability, T/C (second compound 3.16 µM, first compound 0.00316 µM): 46.9%; viability, T/C [19]: 51.1%; viability, T/C (second compound 10 µM, first compound 0.000316 µM): 59.8%; viability, T/C (second compound 10 µM, first compound 0.001 µM): 54.9%; viability, T/C (second compound 10 µM, first compound 0.00316 µM): 50.2%; viability, T/C [25]: 26.2%
O=C(c1cc(Cc2n[nH]c(=O)c3ccccc23)ccc1F)N1CCN(C(=O)C2CC2)CC1 + COc1cc2nc(C)nc(NC(C)c3cc(N)cc(C(F)(F)F)c3)c2cc1OC1CCOC1 | > 10 | > 10 | > 10 | > 10 | > 10 | 82.4 | 76.4 | 86.1 | 75.5 | 69.2 | 88.9 | 88.8 | 80.5 | 70.5 | 90.9 | 88.3 | 70.1 | 75.6 | 55.4 | 59.5 | viability, T/C [31]: 80.2%; viability, T/C [12]: 67.1%; viability, T/C [32]: 77.7%; viability, T/C [16]: 97.1%; viability, T/C [17]: 70.8%; viability, T/C [18]: 70.3%; viability, T/C [33]: 83.5%; viability, T/C [22]: 67.2%; viability, T/C [23]: 60.8%; viability, T/C [24]: 63.6%; viability, T/C [34]: 75.9%; viability, T/C [28]: 55.9%; viability, T/C [29]: 53.3%; viability, T/C [30]: 65.3%; viability, T/C [35]: 77.4%
